Test results reported in patent US8906904B2, “Alkoxy pyrazoles as soluble guanylate cyclase activators” (Boehringer Ingelheim International GmbH, priority 2012, dated 2014).
In brackets after ≈: the same amount, converted by molar mass.

Key:
[1] = human liver microsome (HLM) metabolic stability assay; assay type: in vitro ADME; details: human liver microsomes; % hepatic blood flow calculated from t1/2
In short: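 Compounds at 1 uM incubated with human liver microsomes plus NADPH at 37° C., sampled at 0, 5, 15, 30 and 60 min into cold acetonitrile and quantified by LC/MS/MS. t½ from the slope of ln % remaining vs time; CLint, CLh and % Qh derived from it (n=1).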

[2] = Assessment of solubility (McIlvaine buffers, 24 h shake, UPLC-UV); assay type: physicochemical; details: kinetic from dmso stock
In short: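 Compounds from 10 mM DMSO stocks were shaken for 24 h at room temperature in McIlvaine buffers at pH 2.2, 4.5 and 6.8 (2.5% v/v DMSO final), then filtered. Filtrates were quantified by UPLC-UV at 254 nm against a 50:50 acetonitrile/water reference assumed fully dissolved, as a single determination.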

SMILES	HLM (% Qh) [1]	solubility at 24 h ([2]; pH 2.2, aqueous buffer)	solubility at 24 h ([2]; pH 4.5, aqueous buffer)	solubility at 24 h ([2]; pH 6.8, aqueous buffer)
COCCOc1c(C(=O)O)cnn1-c1cccc(-c2cccc(C)c2OCc2ccc3c(c2C)CCN(C2CCCOC2)C3)n1 (stereo not drawn) [Compound 149]	<24 % Qh	110 µg/mL (≈ 180 µM)	78 µg/mL (≈ 127 µM)	81 µg/mL (≈ 132 µM)
COCCOc1c(C(=O)O)cnn1-c1cccc(-c2cccc(C)c2OCc2ccc3c(c2C)CCN(C2CCOC2)C3)n1 (stereo not drawn) [Compound 150]	<24 % Qh	100 µg/mL (≈ 167 µM)	67 µg/mL (≈ 112 µM)	78 µg/mL (≈ 130 µM)
COCCOc1c(C(=O)O)cnn1-c1cccc(-c2cccc(C)c2OCc2ccc3c(c2C)CCN(C2CCOCC2)C3)n1 [Compound 151]	<24 % Qh	110 µg/mL (≈ 180 µM)	98 µg/mL (≈ 160 µM)	85 µg/mL (≈ 139 µM)
CCOc1c(C(=O)O)cnn1-c1cccc(-c2cccc(C)c2OCc2ccc3c(c2C)CCN(C[C@@H]2CCCOC2)C3)n1 [Compound 152]	<24 % Qh	97 µg/mL (≈ 163 µM)	74 µg/mL (≈ 124 µM)	74 µg/mL (≈ 124 µM)
CCOc1c(C(=O)O)cnn1-c1cccc(-c2cccc(C)c2OCc2ccc3c(c2C)CCN(C[C@H]2CCCOC2)C3)n1 [Compound 153]	<24 % Qh	87 µg/mL (≈ 146 µM)	67 µg/mL (≈ 112 µM)	65 µg/mL (≈ 109 µM)
CCOc1c(C(=O)O)cnn1-c1cccc(-c2cccc(C)c2OCc2ccc3c(c2CC)CCN(C2CCOCC2)C3)n1 [Compound 154]	<24 % Qh	85 µg/mL (≈ 142 µM)	36 µg/mL (≈ 60.3 µM)	57 µg/mL (≈ 95.5 µM)
CCOc1c(C(=O)O)cnn1-c1cccc(-c2cccc(C)c2OCc2ccc3c(c2C)CCN(C2COC(C)(C)OC2)C3)n1 [Compound 155]	<24 % Qh	60 µg/mL (≈ 97.9 µM)	66 µg/mL (≈ 108 µM)	73 µg/mL (≈ 119 µM)
CCOc1c(C(=O)O)cnn1-c1cccc(-c2cccc(C)c2OCc2cc3c(c(C(F)(F)F)c2)CN(C2CCOCC2)CC3)n1 [Compound 157]	31 % Qh	94 µg/mL (≈ 148 µM)	70 µg/mL (≈ 110 µM)	62 µg/mL (≈ 97.4 µM)
COc1c(C(=O)O)cnn1-c1cccc(-c2cccc(C)c2OCc2cc3c(c(C(F)(F)F)c2)CN(C2CCOCC2)CC3)n1 [Compound 158]	<24 % Qh	64 µg/mL (≈ 103 µM)	43 µg/mL (≈ 69.1 µM)	41 µg/mL (≈ 65.8 µM)
CCOc1c(C(=O)O)cnn1-c1cccc(-c2cccc(C)c2OCc2ccc3c(c2F)CCN(C2CCOCC2)C3)n1 [Compound 159]	<24 % Qh	86 µg/mL (≈ 147 µM)	55 µg/mL (≈ 93.8 µM)	51 µg/mL (≈ 86.9 µM)
COc1c(C(=O)O)cnn1-c1cccc(-c2cccc(C)c2OCc2ccc3c(c2C)CCN(S(C)(=O)=O)C3)n1 [Compound 160]	44 % Qh	< 0.1 µg/mL	0.93 µg/mL (≈ 1.65 µM)	73 µg/mL (≈ 130 µM)
Cc1cc(COc2c(C)cccc2-c2cccc(-n3ncc(C(=O)O)c3OC(C)C)n2)cc2c1CN(C1CCOCC1)CC2 [Compound 161]	<24 % Qh	110 µg/mL (≈ 184 µM)	91 µg/mL (≈ 152 µM)	97 µg/mL (≈ 163 µM)
CCOc1c(C(=O)O)cnn1-c1cccc(-c2cccc(C)c2OCc2ccc3c(c2C)CCN(C2CCOCC2)CC3)n1 [Compound 162]	26 % Qh	100 µg/mL (≈ 168 µM)	83 µg/mL (≈ 139 µM)	82 µg/mL (≈ 137 µM)
CCOc1c(C(=O)O)cnn1-c1cccc(-c2cccc(C)c2OCc2ccc3c(c2C)CCN(CC2CCOC(C)(C)C2)C3)n1 (stereo not drawn) [Compound 163]	<24 % Qh	110 µg/mL (≈ 176 µM)	75 µg/mL (≈ 120 µM)	73 µg/mL (≈ 117 µM)
CCOc1c(C(=O)O)cnn1-c1cccc(-c2cccc(C)c2OCc2ccc3c(c2C)CCN(C2COC2)C3)n1 [Compound 164]	<24 % Qh	100 µg/mL (≈ 180 µM)	72 µg/mL (≈ 130 µM)	93 µg/mL (≈ 168 µM)
CCOc1c(C(=O)O)cnn1-c1cccc(-c2cccc(C)c2OCc2ccc3c(c2C(F)(F)F)CCN(C2CCOCC2)C3)n1 [Compound 165]	<24 % Qh	120 µg/mL (≈ 188 µM)	58 µg/mL (≈ 91.1 µM)	39 µg/mL (≈ 61.3 µM)
COc1c(C(=O)O)cnn1-c1cccc(-c2cccc(C)c2OCc2ccc3c(c2C(F)(F)F)CCN(C2CCOCC2)C3)n1 [Compound 166]	27 % Qh	110 µg/mL (≈ 177 µM)	51 µg/mL (≈ 81.9 µM)	64 µg/mL (≈ 103 µM)
COc1c(C(=O)O)cnn1-c1cccc(-c2cccc(C)c2OCc2ccc3c(c2C)CCN(C2CCOCC2)C3=O)n1 [Compound 167, 5-Methoxy-1-(6-{3-methyl-2-[5-methyl-1-oxo-2-(tetrahydro-pyran-4-yl)-1,2,3,4-tetrahydro-isoquinolin-6-ylmethoxy]-phenyl}-pyridin-2-yl)-1H-pyrazole-4-carboxylic acid]	<24 % Qh	2.1 µg/mL (≈ 3.6 µM)	5.9 µg/mL (≈ 10.1 µM)	83 µg/mL (≈ 142 µM)
CCOc1c(C(=O)O)cnn1-c1cccc(-c2cccc(C)c2OCc2ccc3c(c2C)CCN(CCOCCO)C3)n1 [Compound 168]	<24 % Qh	110 µg/mL (≈ 187 µM)	90 µg/mL (≈ 153 µM)	88 µg/mL (≈ 150 µM)
CCOc1c(C(=O)O)cnn1-c1cccc(-c2cccc(C)c2OCc2cc(C)c3c(c2)CCN(C2CCOCC2)C3)n1 [Compound 169]	<24 % Qh	120 µg/mL (≈ 206 µM)	100 µg/mL (≈ 172 µM)	97 µg/mL (≈ 166 µM)
CCOc1c(C(=O)O)cnn1-c1cccc(-c2cccc(C)c2OCc2ccc3c(c2C)CCN(C[C@H]2COCCO2)C3)n1 [Compound 170]	<24 % Qh	120 µg/mL (≈ 200 µM)	96 µg/mL (≈ 160 µM)	95 µg/mL (≈ 159 µM)
COc1c(C(=O)O)cnn1-c1cccc(-c2cccc(C)c2OCc2cc(C)c3c(c2)CCN(C2CCOCC2)C3)n1 [Compound 171]	<24 % Qh	120 µg/mL (≈ 211 µM)	99 µg/mL (≈ 174 µM)	98 µg/mL (≈ 172 µM)
CCOc1c(C(=O)O)cnn1-c1cccc(-c2cccc(C)c2OCc2ccc3c(c2C)CCN(CC2CCOCC2)C3)n1 [Compound 172]	<24 % Qh	110 µg/mL (≈ 184 µM)	87 µg/mL (≈ 146 µM)	85 µg/mL (≈ 142 µM)
CCOc1c(C(=O)O)cnn1-c1cccc(-c2cccc(C)c2OCc2cc(C)c3c(c2)CCN(C2CCCOC2)C3)n1 (stereo not drawn) [Compound 173]	<24 % Qh	130 µg/mL (≈ 223 µM)	98 µg/mL (≈ 168 µM)	97 µg/mL (≈ 166 µM)
CCOc1c(C(=O)O)cnn1-c1cccc(-c2cccc(C)c2OCc2cc(C)c3c(c2)CCN(C2COC2)C3)n1 [Compound 174]	<24 % Qh	99 µg/mL (≈ 178 µM)	71 µg/mL (≈ 128 µM)	91 µg/mL (≈ 164 µM)
CCOc1c(C(=O)O)cnn1-c1cccc(-c2cccc(C)c2OCc2ccc3c(c2C)CCN(C2COC2)CC3)n1 [Compound 175]	31 % Qh	110 µg/mL (≈ 193 µM)	80 µg/mL (≈ 141 µM)	85 µg/mL (≈ 149 µM)
COc1c(C(=O)O)cnn1-c1cccc(-c2cccc(C)c2OCc2ccc3c(c2C)CCN(C2COC2)CC3)n1 [Compound 176]	28 % Qh	100 µg/mL (≈ 180 µM)	77 µg/mL (≈ 139 µM)	43 µg/mL (≈ 77.5 µM)
COc1c(C(=O)O)cnn1-c1cccc(-c2cccc(C)c2OCc2ccc3c(c2F)CCN(C2COC2)C3)n1 [Compound 177]	<24 % Qh	110 µg/mL (≈ 202 µM)	58 µg/mL (≈ 107 µM)	86 µg/mL (≈ 158 µM)
COc1c(C(=O)O)cnn1-c1cccc(-c2cccc(C)c2OCc2cc(C)c3c(c2C)CCN(C2COC2)C3)n1 [Compound 178]	<24 % Qh	100 µg/mL (≈ 180 µM)	72 µg/mL (≈ 130 µM)	86 µg/mL (≈ 155 µM)
CCOc1c(C(=O)O)cnn1-c1cccc(-c2cccc(C)c2OCc2ccc3c(c2C)CCN(C[C@H]2COC(C)(C)O2)C3)n1 [Compound 179]	<24 % Qh	43 µg/mL (≈ 70.2 µM)	92 µg/mL (≈ 150 µM)	93 µg/mL (≈ 152 µM)
